Measurements published in patent publication US20040224958A1, “Pyridopyrimidinone derivatives for treatment of neurodegenerative disease” (priority 2000, published 2004).
Like-named read-outs stand apart in the source and are kept apart here.

Legend:
[1] = target: Cdk5/p25 (Homo sapiens, UniProt Q00535); assay: Cyclin-Dependent Kinase 5 (cdk5) Assay; assay type: biochemical
Description: Cyclin-Dependent Kinase 5 (cdk5) Assay
Enzyme assays for IC50 determinations and kinetic evaluation were performed in 96-well filter plates (Millipore MAPH NOB 10). […] All components except histone and ATP were added to wells, and the plate was placed on a shaker for 5 minutes. The reaction was started by adding histone and [^32P]ATP, and the plate was shaken at 30° C. for 45 minutes. The reaction was terminated by addition of 0.1 mL of 150 mM phosphoric acid. The plate was kept at 4° C. for 30 minutes to allow substrate to precipitate. The wells were then washed three times with 0.2 mL of 75 mM phosphoric acid and ^32P incorporation was determined with a beta plate counter (Wallac Inc, Gaithersburg, Md.).

[2] = target: cdk4/D (Homo sapiens, UniProt P11802); assay: Cyclin-Dependent Kinase 4 (cdk4) Assay; assay type: biochemical
[3] = target: cdk2/cyclinE (Homo sapiens, UniProt P24941); assay: Cyclin-Dependent Kinase Assay cdk2/cyclinE
[4] = target: cdk2/cyclinA (Homo sapiens, UniProt P24941); assay: Cyclin-Dependent Kinase Assay cdk2/cyclinA
[5] = target: cdc2/cyclinB (Homo sapiens, UniProt P06493); assay: Cyclin-Dependent Kinase Assay cdc2/cyclinB
Sequence of cdc2/cyclinB (P06493 whole entry): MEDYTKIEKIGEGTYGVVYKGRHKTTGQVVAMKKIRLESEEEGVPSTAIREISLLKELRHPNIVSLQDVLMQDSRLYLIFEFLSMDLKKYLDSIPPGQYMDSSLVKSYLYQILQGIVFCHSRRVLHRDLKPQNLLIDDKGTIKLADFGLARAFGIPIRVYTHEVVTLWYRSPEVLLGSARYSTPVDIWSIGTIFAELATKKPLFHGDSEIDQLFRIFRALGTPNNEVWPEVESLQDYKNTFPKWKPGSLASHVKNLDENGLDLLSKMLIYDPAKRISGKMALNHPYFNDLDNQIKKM
Sequence of cdc2/cyclinB (P14635 whole entry, further chain): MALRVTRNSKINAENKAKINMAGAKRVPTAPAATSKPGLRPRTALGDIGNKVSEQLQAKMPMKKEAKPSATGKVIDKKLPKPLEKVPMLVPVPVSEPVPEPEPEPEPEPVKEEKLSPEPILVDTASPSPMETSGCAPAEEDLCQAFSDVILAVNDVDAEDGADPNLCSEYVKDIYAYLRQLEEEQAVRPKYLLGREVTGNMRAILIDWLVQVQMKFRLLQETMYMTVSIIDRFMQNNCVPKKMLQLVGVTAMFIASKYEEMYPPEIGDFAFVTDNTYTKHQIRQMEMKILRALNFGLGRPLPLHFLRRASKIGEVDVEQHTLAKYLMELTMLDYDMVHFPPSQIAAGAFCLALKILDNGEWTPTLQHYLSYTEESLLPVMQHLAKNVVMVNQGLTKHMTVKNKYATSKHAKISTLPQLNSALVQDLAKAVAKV

Sequence of cdk4/D (P11802 whole entry): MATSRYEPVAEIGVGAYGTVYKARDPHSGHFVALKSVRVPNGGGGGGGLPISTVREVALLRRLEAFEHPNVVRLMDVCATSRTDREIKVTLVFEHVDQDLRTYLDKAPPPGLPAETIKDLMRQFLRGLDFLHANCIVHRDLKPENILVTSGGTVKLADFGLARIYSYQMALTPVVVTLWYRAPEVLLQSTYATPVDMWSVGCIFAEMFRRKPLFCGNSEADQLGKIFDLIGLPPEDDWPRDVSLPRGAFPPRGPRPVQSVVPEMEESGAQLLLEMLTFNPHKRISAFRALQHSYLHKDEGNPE
Sequence of cdk4/D (P24385 whole entry, further chain): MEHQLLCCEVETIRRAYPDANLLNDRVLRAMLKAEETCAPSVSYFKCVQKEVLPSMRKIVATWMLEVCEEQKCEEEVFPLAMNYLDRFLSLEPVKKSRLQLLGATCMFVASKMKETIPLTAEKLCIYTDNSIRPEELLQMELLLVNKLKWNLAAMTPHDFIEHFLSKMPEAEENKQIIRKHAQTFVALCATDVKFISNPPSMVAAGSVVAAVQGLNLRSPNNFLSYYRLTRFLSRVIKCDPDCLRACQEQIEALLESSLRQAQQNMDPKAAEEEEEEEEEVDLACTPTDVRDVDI

| Compound | IC50 ([1]; Table 1) | IC50 ([2]; Table 1, read-out: cdk4/D IC50) | melting point | further results |
| --- | --- | --- | --- | --- |
| 8-Ethyl-2-(pyrimidin-4-ylamino)-8H-pyrido[2,3-d]pyrimidin-7-one [Example 50] | 27 nM | 2000 nM | – | – |
| 8-Isopropyl-2-(4-methoxy-phenylamino)-8H-pyrido[2,3-d]pyrimidin-7-one [Example 622] | – | – | – | IC50 ([3]; read-out: Cdk2/E IC50, Table 3): 540 nM; IC50 ([4]; read-out: Cdk2/A IC50, Table 3): 392 nM; IC50 ([1]; Table 3): 30 nM; IC50 ([2]; Table 3, read-out: Cdk4 IC50): 4080 nM |
| O=c1ccc2cnc(Nc3ccc(N4CCCCC4)cc3)nc2n1C1CCOC1 (racemic) [Example 200, 2-(4-Piperidin-1-yl-phenylamino)-8-(tetrahydro-furan-3-yl)-8H-pyrido[2,3-d]pyrimidin-7-one] | – | 219 nM | 181 to 182 °C | IC50 ([3]; cdk2/E IC50, Table 1): 1900 nM; IC50 ([4]; cdk2/A IC50, Table 1): 285 nM; IC50 [5]: 4340 nM |
| O=c1ccc2cnc(Nc3ccc(N4CCCCC4)cc3)nc2n1[C@H]1C[C@H]2CC[C@@H]1C2 (relative stereo) [Example 229, 8-Dicyclo[2.2.1]hept-2-yl-2-(4-piperidin-1-yl-phenylamino)-8H-pyrido[2,3-d]pyrimidin-7-one] | 288 nM | 2800 nM | – | IC50 ([3]; cdk2/E IC50, Table 1): 3000 nM; IC50 ([4]; cdk2/A IC50, Table 1): 996 nM; IC50 [5]: 440 nM |
| CCn1c(=O)ccc2cnc(Nc3ccccc3)nc21 [Example 18, 8-Ethyl-2-phenylamino-8H-pyrido[2,3-d]pyrimidin-7-one] | 65 nM | – | 203 to 204 °C | – |
| O=c1ccc2cnc(Nc3ccccc3)nc2[nH]1 [Example 32, 2-Phenylamino-8H-pyrido[2,3-d]pyrimidin-7-one] | 1430 nM | – | – | – |
| CC(C)Cn1c(=O)ccc2cnc(Nc3ccccc3)nc21 [Example 42, 8-Isobutyl-2-phenylamino-8H-pyrido[2,3-d]pyrimidin-7-one] | 15 nM | – | 170 to 171 °C | – |
| CCn1c(=O)ccc2cnc(Nc3ccc(OC)cc3)nc21 [Example 51, 8-Ethyl-2-(4-methoxyphenylamino)-8H-pyrido[2,3-d]pyrimidin-7-one] | 49 nM | – | 196 to 197 °C | – |
| CCN(CC)CCOc1ccc(Nc2ncc3ccc(=O)n(CC)c3n2)cc1 [Example 52, 2-[4-(2-Diethylaminoethoxy)-phenylamino]-8-ethyl-8H-pyrido[2,3-d]-pyrimidin-7-one] | 155 nM | – | 128 to 129 °C | – |
| CCn1c(=O)ccc2cnc(Nc3ccc(N4CCN(C)CC4)cc3)nc21 [Example 53, 8-Ethyl-2-[4-(4-methylpiperazin-1-yl)-phenylamino]-8H-pyrido[2,3-d]-pyrimidin-7-one] | 239 nM | – | 185 to 186 °C | – |
| CCn1c(=O)ccc2cnc(Nc3cccc(OC(F)(F)C(F)F)c3)nc21 [Example 54, 8-Ethyl-2-[3-(1,1,2,2-tetrafluoroethoxy)-phenylamino]-8H-pyrido[2,3-d]-pyrimidin-7-one] | 568 nM | – | 175 to 176 °C | – |
| CCn1c(=O)ccc2cnc(Nc3ccc(OCCOC)cc3)nc21 [Example 57, 8-Ethyl-2-[4-(2-methoxyethoxy)phenylamino]-8H-pyrido[2,3-d]pyrimidin-7-one] | 218 nM | – | 169 to 171 °C | – |
| CC(C)n1c(=O)ccc2cnc(Nc3ccc(N4CCN(C)CC4)cc3)nc21 [Example 60, 8-Isopropyl-2-[4-(4-methylpiperazin-1-yl)-phenylamino]-8H-pyrido[2,3-d]-pyrimidin-7-one] | 17 nM | – | – | – |
| CCN1C(=O)CCc2cnc(Nc3ccccc3)nc21 [Example 69, 8-Ethyl-2-phenylamino-5,8-dihydro-6H-pyrido[2,3-d]pyrimidin-7-one] | 65 nM | – | 146 to 147 °C | – |
| CCn1c(=O)ccc2cnc(Nc3ccc(N4CCOCC4)cc3)nc21 [Example 79, 8-Ethyl-2-(4-morpholin-4-yl-phenylamino)-8H-pyrido[2,3-d]pyrimidin-7-one] | 107 nM | – | 227 to 228 °C | – |
| CCn1c(=O)c(C)cc2cnc(Nc3ccccc3)nc21 [Example 83, 8-Ethyl-6-methyl-2-phenylamino-8H-pyrido[2,3-d]pyrimidin-7-one] | 587 nM | – | 178 to 180 °C | – |
| CCn1c(=O)c(C)cc2cnc(Nc3ccc(N4CCN(C)CC4)cc3)nc21 [Example 84, 8-Ethyl-6-methyl-2-[4-(4-methyl-piperazin-1-yl)-phenylamino]-8H-pyrido[2,3-d]pyrimidin-7-one] | 765 nM | – | 198 to 200 °C | – |
| CCn1c(=O)ccc2cnc(Nc3cccc(F)c3)nc21 [Example 89, 8-Ethyl-2-(3-fluorophenylamino)-8H-pyrido[2,3-d]pyrimidin-7-one] | 393 nM | – | 210 to 212 °C | – |

| Compound | IC50 ([1]; Table 1) | IC50 ([2]; Table 1, read-out: cdk4/D IC50) | melting point | further results |
| --- | --- | --- | --- | --- |
| CCn1c(=O)ccc2cnc(Nc3ccc(OC)c(F)c3)nc21 [Example 90, 8-Ethyl-2-(3-fluoro-4-methoxyphenylamino)-8H-pyrido[2,3-d]pyrimidin-7-one] | 29 nM | – | 196 to 198 °C | – |
| CCn1c(=O)ccc2cnc(Nc3cccc(F)c3OC)nc21 [Example 91, 8-Ethyl-2-(3-fluoro-2-methoxyphenylamino)-8H-pyrido[2,3-d]pyrimidin-7-one] | 4450 nM | – | 92 to 93 °C | – |
| CCn1c(=O)ccc2cnc(Nc3ccccc3OC)nc21 [Example 92, 8-Ethyl-2-(2-methoxyphenylamino)-8H-pyrido[2,3-d]pyrimidin-7-one] | 1680 nM | – | 126 to 128 °C | – |
| CCn1c(=O)ccc2cnc(Nc3ccc(N(C)C)cc3)nc21 [Example 93, 2-(4-Dimethylamino-phenylamino)-8-ethyl-8H-pyrido[2,3-d]pyrimidin-7-one] | 64 nM | – | 189 to 191 °C | – |
| O=c1ccc2cnc(Nc3ccccc3)nc2n1-c1ccccc1 [Example 101, 2-Phenylamino-8-phenyl-8H-pyrido[2,3-d]pyrimidin-7-one] | 165 nM | – | – | – |
| O=c1ccc2cnc(Nc3ccccc3)nc2n1C1CCCC1 [Example 108, 8-Cyclopentyl-2-phenylamino-8H-pyrido[2,3-d]pyrimidin-7-one] | 26 nM | – | 188 to 192 °C | – |
| O=c1ccc2cnc(Nc3ccccc3)nc2n1C1CCCCC1 [Example 131, 8-Cyclohexyl-2-phenylamino-8H1-pyrido[2,3-d]pyrimidin-7-one] | 15 nM | – | 202 to 204 °C | – |
| O=c1ccc2cnc(Nc3ccccc3)nc2n1C1CC1 [Example 135, 8-Cyclopropyl-2-phenylamino-8H-pyrido[2,3-d]pyrimidin-7-one] | 493 nM | – | 191 to 193 °C | – |
| CCN(CC)CCOc1ccc(Nc2ncc3ccc(=O)n(CCOCc4ccccc4)c3n2)cc1 [Example 139] | – | 2860 nM | 95 to 97 °C | IC50 ([3]; cdk2/E IC50, Table 1): 2630 nM |
| CN(C)CCCN1CCN(c2ccc(Nc3ncc4ccc(=O)n(C5CCCCC5)c4n3)cc2)CC1 [Example 144] | 39.4 nM | 16 nM | – | IC50 ([3]; read-out: cdk2/E IC50, Table 1): 43 nM; IC50 ([4]; read-out: cdk2/A IC50, Table 1): 102 nM; IC50 ([5]; read-out: cdk1/B IC50, Table 1): 344 nM |
| O=c1ccc2cnc(Nc3ccc(F)cc3)nc2n1C1CCCCC1 [Example 148, 8-Cyclohexyl-2-(4-fluoro-phenylamino)-8H-pyrido[2,3-d]pyrimidin-7-one] | – | 197 nM | 209 to 211 °C | IC50 ([3]; cdk2/E IC50, Table 1): 53.5 nM; IC50 ([4]; cdk2/A IC50, Table 1): 77.5 nM; IC50 [5]: 1820 nM |
| O=c1ccc2cnc(Nc3ccc(N4CCCCC4)cc3)nc2n1C1CCCCCC1 [Example 163, 8-Cycloheptyl-2-(4-piperidin-1-yl-phenylamino)-8H-pyrido[2,3-d]primidin-7-one] | 150 nM | 31.5 nM | – | IC50 ([3]; read-out: cdk2/E IC50, Table 1): 193 nM; IC50 ([4]; read-out: cdk2/A IC50, Table 1): 66.8 nM; IC50 ([5]; read-out: cdk1/B IC50, Table 1): 642 nM |
| O=c1ccc2cnc(Nc3ccc(SC(F)(F)F)cc3)nc2n1C1CC2CCC1C2 (stereo not drawn) [Example 221, 8-Bicyclo[2.2.1]hept-2-yl-2-(4-trifluoromethylsuffanyl-phenylamino)-8H-pyrido[2,3-d]pyrimidin-7-one] | 349 nM | 320 nM | – | IC50 ([3]; read-out: cdk2/E IC50, Table 1): 511 nM; IC50 ([4]; read-out: cdk2/A IC50, Table 1): 370 nM; IC50 ([5]; read-out: cdk1/B IC50, Table 1): 1120 nM |
| O=c1ccc2cnc(Nc3ccc(N4CCCC(O)C4)cc3)nc2n1C1CC2CCC1C2 (stereo not drawn) [Example 254] | 44.9 nM | 3.5 nM | – | IC50 ([3]; cdk2/E IC50, Table 1): 64 nM; IC50 ([4]; cdk2/A IC50, Table 1): 28 nM; IC50 [5]: 175 nM |
| CC1CN(c2ccc(Nc3ncc4ccc(=O)n(C5CC6CCC5C6)c4n3)cc2)CC(C)N1 (stereo not drawn) [Example 255] | 32.1 nM | 3 nM | – | IC50 ([3]; read-out: cdk2/E IC50, Table 1): 124 nM; IC50 ([4]; read-out: cdk2/A IC50, Table 1): 67.5 nM; IC50 ([5]; read-out: cdk1/B IC50, Table 1): 335 nM |
| O=c1ccc2cnc(Nc3ccc(N4CCC(CCN5CCOCC5)CC4)cc3)nc2n1C1CCCCC1 [Example 258] | – | 7.5 nM | 245 to 246 °C | IC50 ([3]; cdk2/E IC50, Table 1): 200 nM; IC50 ([4]; cdk2/A IC50, Table 1): 73.3 nM; IC50 [5]: 599 nM |
| CCC(CC)n1c(=O)ccc2cnc(Nc3ccccc3)nc21 [R′=H, R″=H, R2=1-ethylpropyl, 8-(1-Ethylpropyl)-2-phenylamino-8H-pyrido[2,3-d]pyrimidin-7-one] | – | – | – | IC50 ([3]; Cdk2/E IC50, Table 3): 200 nM; IC50 ([4]; Cdk2/A IC50, Table 3): 127 nM; IC50 ([1]; Table 3): 8.7 nM; IC50 ([2]; Table 3, read-out: Cdk4 IC50): 159 nM |
